# Experimental data: US12637465B2, “Pharmaceutically acceptable salts of sepiapterin” (PTC Therapeutics MP, Inc., priority 2018, dated 2026)
# Tests used:
# Type in all cases: physicochemical
# [1] = Solid form stability study of salts and/or co-crystals at 25° C./60% RH and 40° C./75% RH
# Procedure: The stability of the prepared salts and/or co-crystals was analyzed after 1 and 2 weeks at 25° C. and 60% relative humidity and 40° C. and 75% relative humidity. […] None of the phosphate, tartrate, or nicotinate salts and/or co-crystals underwent a form change during the stability testing, and each of them retained greater than 97% purity over the two weeks of the study. In fact, both the tartrate and nicotinate both retained greater than 99% purity.
# [2] = Form change/disproportionation of residual solids by XRPD after suspension in water or Medisca Oral Mix; conditions: for Form change (residual solids, XRPD): RT
# Procedure: The kinetic solubility was evaluated for nicotinate, phosphate, L-tartrate, and fumarate salts and/or co-crystals of sepiapterin in water and […] Oral Mix. X-ray powder diffraction (XRPD) was performed for the residual solids to identify form change/disproportionation. Solids were suspended into the media with target conc. of 7 mg/mL (calculated by freebase). […] Oral Mix after 1 hour. […] Oral Mix.
# [3] = Kinetic solubility in water and Medisca Oral Mix (HPLC solubility, purity and pH of supernatant); conditions: RT; for Purity (area %) of supernatant: for reference only; for Purity (area %) of supernatant / pH: listed as fumarate salt and/or co-crystal
# Procedure: The kinetic solubility was evaluated for nicotinate, phosphate, L-tartrate, and fumarate salts and/or co-crystals of sepiapterin in water and […] Oral Mix. X-ray powder diffraction (XRPD) was performed for the residual solids to identify form change/disproportionation. Solids were suspended into the media with target conc. of 7 mg/mL (calculated by freebase).
smiles,measurement,setting,value
"C[C@H](O)C(=O)C1=Nc2c(nc(N)[nH]c2=O)NC1 [Benzenesulfonate, sepiapterin]",Purity (Area %),"[1]; 1 week, 25° C./60% RH",90.68 Area %
same,Purity vs. initial (%),"[1]; 1 week, 25° C./60% RH",100.5%
same,Purity (Area %),"[1]; 1 week, 40° C./75% RH",82.63 Area %
same,Purity vs. initial (%),"[1]; 1 week, 40° C./75% RH",91.6%
same,Purity (Area %),"[1]; 2 weeks, 25° C./60% RH",86.37 Area %
same,Purity vs. initial (%),"[1]; 2 weeks, 25° C./60% RH",95.8%
same,Purity (Area %),"[1]; 2 weeks, 40° C./75% RH",82.65 Area %
same,Purity vs. initial (%),"[1]; 2 weeks, 40° C./75% RH",91.6%
same,Purity (Area %),[1]; Initial,90.20 Area %
"C[C@H](O)C(=O)C1=Nc2c(nc(N)[nH]c2=O)NC1 [Fumarate, sepiapterin]",Disproportionation in the disproportionation study,[2],no evidence of disproportionation
same,"Form change (residual solids, XRPD)","[2]; Medisca Oral Mix, 1 hr, listed as fumarate salt and/or co-crystal",No **
same,"Form change (residual solids, XRPD)","[2]; Medisca Oral Mix, 4 hr, listed as fumarate salt and/or co-crystal",No **
same,"Form change (residual solids, XRPD)","[2]; Medisca Oral Mix, 24 hr, listed as fumarate salt and/or co-crystal",No **
same,Form of the residual solids in Medisca Oral Mix,"[2]; Medisca Oral Mix, after 1 hour, listed as fumarate salt and/or co-crystal",crystallinity of residual solids decreased
same,"Form change (residual solids, XRPD)","[2]; Water, 1 hr, listed as fumarate salt and/or co-crystal",No
same,"Form change (residual solids, XRPD)","[2]; Water, 4 hr, listed as fumarate salt and/or co-crystal",No
same,"Form change (residual solids, XRPD)","[2]; Water, 24 hr, listed as fumarate salt and/or co-crystal",No
same,Form of the residual solids in water,"[2]; water, after 1 hour, listed as fumarate salt and/or co-crystal",no form change was observed
same,Stability in the solid form stability study of Example 2,[1],high stability
same,Form change,"[1]; 1 week, 25° C./60% RH",No
same,Purity (Area %),"[1]; 1 week, 25° C./60% RH",99.39 Area %
same,Purity vs. initial (%),"[1]; 1 week, 25° C./60% RH",99.9%
same,Form change,"[1]; 1 week, 40° C./75% RH",No
same,Purity (Area %),"[1]; 1 week, 40° C./75% RH",99.15 Area %
same,Purity vs. initial (%),"[1]; 1 week, 40° C./75% RH",99.7%
same,Purity (Area %),"[1]; 2 weeks, 25° C./60% RH",99.25 Area %
same,Purity vs. initial (%),"[1]; 2 weeks, 25° C./60% RH",99.7%
same,Purity (Area %),"[1]; 2 weeks, 40° C./75% RH",98.98 Area %
same,Purity vs. initial (%),"[1]; 2 weeks, 40° C./75% RH",99.5%
same,Purity (Area %),[1]; Initial,99.46 Area %
same,Observation,"[3]; Medisca Oral Mix, 1 hr",Turbid
same,Purity (area %) of supernatant,"[3]; Medisca Oral Mix, 1 hr",99.74 area %
same,pH,"[3]; Medisca Oral Mix, 1 hr",4.0
same,Observation,"[3]; Medisca Oral Mix, 4 hr",Turbid
same,Purity (area %) of supernatant,"[3]; Medisca Oral Mix, 4 hr",99.60 area %
same,pH,"[3]; Medisca Oral Mix, 4 hr",4.0
same,Observation,"[3]; Medisca Oral Mix, 24 hr",Turbid
same,Purity (area %) of supernatant,"[3]; Medisca Oral Mix, 24 hr",96.54 area %
same,pH,"[3]; Medisca Oral Mix, 24 hr",4.0
same,Observation,"[3]; Water, 1 hr",Turbid
same,Purity (area %) of supernatant,"[3]; Water, 1 hr",98.39 area %
same,pH,"[3]; Water, 1 hr",3.1
same,Observation,"[3]; Water, 4 hr",Turbid
same,Purity (area %) of supernatant,"[3]; Water, 4 hr",98.19 area %
same,pH,"[3]; Water, 4 hr",3.1
same,Observation,"[3]; Water, 24 hr",Turbid
same,Purity (area %) of supernatant,"[3]; Water, 24 hr",95.43 area %
same,pH,"[3]; Water, 24 hr",3.1
"C[C@H](O)C(=O)C1=Nc2c(nc(N)[nH]c2=O)NC1 [Gentisate, sepiapterin]",Purity (Area %),"[1]; 1 week, 25° C./60% RH",97.66 Area %
same,Purity vs. initial (%),"[1]; 1 week, 25° C./60% RH",103.5%
same,Purity (Area %),"[1]; 1 week, 40° C./75% RH",96.89 Area %
same,Purity vs. initial (%),"[1]; 1 week, 40° C./75% RH",102.7%
same,Purity (Area %),"[1]; 2 weeks, 25° C./60% RH",97.00 Area %
same,Purity vs. initial (%),"[1]; 2 weeks, 25° C./60% RH",102.8%
same,Purity (Area %),"[1]; 2 weeks, 40° C./75% RH",93.37 Area %
same,Purity vs. initial (%),"[1]; 2 weeks, 40° C./75% RH",102.1%
same,Purity (Area %),[1]; Initial,94.35 Area %
"C[C@H](O)C(=O)C1=Nc2c(nc(N)[nH]c2=O)NC1 [Glycolate, sepiapterin]",Purity (Area %),"[1]; 1 week, 25° C./60% RH",98.93 Area %
same,Purity vs. initial (%),"[1]; 1 week, 25° C./60% RH",99.7%
same,Purity (Area %),"[1]; 1 week, 40° C./75% RH",98.54 Area %
same,Purity vs. initial (%),"[1]; 1 week, 40° C./75% RH",99.3%
same,Purity (Area %),"[1]; 2 weeks, 25° C./60% RH",98.86 Area %
same,Purity vs. initial (%),"[1]; 2 weeks, 25° C./60% RH",99.7%
same,Purity (Area %),"[1]; 2 weeks, 40° C./75% RH",98.52 Area %
same,Purity vs. initial (%),"[1]; 2 weeks, 40° C./75% RH",99.3%
same,Purity (Area %),[1]; Initial,99.19 Area %
"C[C@H](O)C(=O)C1=Nc2c(nc(N)[nH]c2=O)NC1 [HCI, sepiapterin]",Form change,"[1]; 1 week, 25° C./60% RH",No
same,Purity (Area %),"[1]; 1 week, 25° C./60% RH",97.19 Area %
same,Purity vs. initial (%),"[1]; 1 week, 25° C./60% RH",103.5%
same,Form change,"[1]; 1 week, 40° C./75% RH",No
same,Purity (Area %),"[1]; 1 week, 40° C./75% RH",89.25 Area %
same,Purity vs. initial (%),"[1]; 1 week, 40° C./75% RH",95.0%
same,Form change,"[1]; 2 weeks, 25° C./60% RH",No
same,Purity (Area %),"[1]; 2 weeks, 25° C./60% RH",91.84 Area %
same,Purity vs. initial (%),"[1]; 2 weeks, 25° C./60% RH",97.8%
same,Form change,"[1]; 2 weeks, 40° C./75% RH",No
same,Purity (Area %),"[1]; 2 weeks, 40° C./75% RH",84.16 Area %
same,Purity vs. initial (%),"[1]; 2 weeks, 40° C./75% RH",89.6%
same,Purity (Area %),[1]; Initial,93.94 Area %
"C[C@H](O)C(=O)C1=Nc2c(nc(N)[nH]c2=O)NC1 [Malonate, sepiapterin]",Purity (Area %),"[1]; 1 week, 25° C./60% RH",99.39 Area %
same,Purity vs. initial (%),"[1]; 1 week, 25° C./60% RH",99.9%
same,Purity (Area %),"[1]; 1 week, 40° C./75% RH",99.14 Area %
same,Purity vs. initial (%),"[1]; 1 week, 40° C./75% RH",99.7%
same,Purity (Area %),"[1]; 2 weeks, 25° C./60% RH",99.23 Area %
same,Purity vs. initial (%),"[1]; 2 weeks, 25° C./60% RH",99.8%
same,Purity (Area %),"[1]; 2 weeks, 40° C./75% RH",97.81 Area %
same,Purity vs. initial (%),"[1]; 2 weeks, 40° C./75% RH",98.3%
same,Purity (Area %),[1]; Initial,99.45 Area %
"C[C@H](O)C(=O)C1=Nc2c(nc(N)[nH]c2=O)NC1 [Methanesulfonate, sepiapterin]",Form change,"[1]; 1 week, 25° C./60% RH",No
same,Purity (Area %),"[1]; 1 week, 25° C./60% RH",95.26 Area %
same,Purity vs. initial (%),"[1]; 1 week, 25° C./60% RH",104.5%
same,Form change,"[1]; 1 week, 40° C./75% RH",No
same,Purity (Area %),"[1]; 1 week, 40° C./75% RH",88.68 Area %
same,Purity vs. initial (%),"[1]; 1 week, 40° C./75% RH",97.3%
same,Form change,"[1]; 2 weeks, 25° C./60% RH",No
same,Purity (Area %),"[1]; 2 weeks, 25° C./60% RH",91.95 Area %
same,Purity vs. initial (%),"[1]; 2 weeks, 25° C./60% RH",100.9%
same,Form change,"[1]; 2 weeks, 40° C./75% RH",No
same,Purity (Area %),"[1]; 2 weeks, 40° C./75% RH",85.97 Area %
same,Purity vs. initial (%),"[1]; 2 weeks, 40° C./75% RH",94.3%
same,Purity (Area %),[1]; Initial,91.14 Area %
"C[C@H](O)C(=O)C1=Nc2c(nc(N)[nH]c2=O)NC1 [Sulfate, sepiapterin]",Form change,"[1]; 1 week, 25° C./60% RH",No
same,Purity (Area %),"[1]; 1 week, 25° C./60% RH",95.22 Area %
same,Purity vs. initial (%),"[1]; 1 week, 25° C./60% RH",97.8%
same,Form change,"[1]; 1 week, 40° C./75% RH",No
same,Purity (Area %),"[1]; 1 week, 40° C./75% RH",89.44 Area %
same,Purity vs. initial (%),"[1]; 1 week, 40° C./75% RH",91.9%
same,Form change,"[1]; 2 weeks, 25° C./60% RH",No
same,Purity (Area %),"[1]; 2 weeks, 25° C./60% RH",93.46 Area %
same,Purity vs. initial (%),"[1]; 2 weeks, 25° C./60% RH",96.0%
same,Form change,"[1]; 2 weeks, 40° C./75% RH",No
same,Purity (Area %),"[1]; 2 weeks, 40° C./75% RH",88.20 Area %
same,Purity vs. initial (%),"[1]; 2 weeks, 40° C./75% RH",90.6%
same,Purity (Area %),[1]; Initial,97.33 Area %
"C[C@H](O)C(=O)C1=Nc2c(nc(N)[nH]c2=O)NC1 [Toluenesulfonate, sepiapterin]",Form change,"[1]; 1 week, 25° C./60% RH",No
same,Purity (Area %),"[1]; 1 week, 25° C./60% RH",94.19 Area %
same,Purity vs. initial (%),"[1]; 1 week, 25° C./60% RH",97.3%
same,Form change,"[1]; 1 week, 40° C./75% RH",No
same,Purity (Area %),"[1]; 1 week, 40° C./75% RH",89.11 Area %
same,Purity vs. initial (%),"[1]; 1 week, 40° C./75% RH",92.0%
same,Form change,"[1]; 2 weeks, 25° C./60% RH",No
same,Purity (Area %),"[1]; 2 weeks, 25° C./60% RH",91.40 Area %
same,Purity vs. initial (%),"[1]; 2 weeks, 25° C./60% RH",94.4%
same,Form change,"[1]; 2 weeks, 40° C./75% RH",No
same,Purity (Area %),"[1]; 2 weeks, 40° C./75% RH",88.12 Area %
same,Purity vs. initial (%),"[1]; 2 weeks, 40° C./75% RH",91.0%
same,Purity (Area %),[1]; Initial,96.84 Area %
